Square brackets hold non-standard residues; d marks the D form. Peptide text beside a SMILES is read from it. * marks the point of attachment. Dolaproine = CO[C@@H]([C@@H]1CCCN1)[C@@H](C)C(=O)O; Dil = CC[C@H](C)[C@H](NC)[C@@H](CC(=O)O)OC; X1 = C[C@@H](N*)[C@@H](O)c1ccccc1; NMeV = CN[C@H](C(=O)O)C(C)C
Assays:
[1] = system: breast cancer cell line HCC1954; assay: Cytotoxicity test of conjugate LDC10H; type: cell-based, human; conditions: HCC1954, incubated 15-30 min, then 2-3 days
Experimental: (§1) Culture medium: RPMI 1640 Medium, no folic acid
(§2) 1) human lung cancer cell H1299, ovarian cancer cell SKOV3, breast cancer cell line HCC1954, and human lung cancer cell H460 were incubated at 37° C., 5% CO2 in RPMI 1640 medium containing 10% fetal bovine serum, the cells were passaged every 2-3 days.
(§3) 2) human lung cancer cell H1299, ovarian cancer cell SKOV3, breast cancer cell line HCC1954, and human lung cancer cell H460 were plated at 1×10^3 cells per well (96-well plate) and incubated for 8-12 h at 37° C., 5% CO2.
(§4) 3) Stock solutions of LDC conjugates or control were prepared in PBS solution. 100 μL/well of serially diluted LDC conjugates or control was added to the cells in the plate and incubated for 15-30 min at 37° C., 5% CO2. The culture medium in the wells was then removed by aspiration and the cells were incubated in fresh culture medium without conjugates (150 μL/well) for 2-3 days at 37° C., 5% CO2.
(§5) 4) CellTiter 96® Aqueous One Solution Cell Proliferation Assay (Promega) was added to each well to measure the amount of […] cells, and the plate was incubated in an incubator for 1 h at 37° C., 5% CO2.
(§6) 5) the plate was read at 490 nm on a microplate reader, and the cell survivals were compared for cells with or without the treatment of LDC conjugates. The LDC drug concentrations that are required for 50% cell death (IC50 values) were determined.

[2] = system: ovarian cancer cell SKOV3; assay: Cytotoxicity test of conjugate LDC10H; type: cell-based, human; conditions: SKOV3, incubated 15-30 min, then 2-3 days
Experimental: as §1, §2, §3, §4, §5, §6

[3] = system: human nasopharyngeal cancer cell line KB; assay: Cytotoxicity test of conjugate LDC1013; type: cell-based; conditions: incubated 15-30 min, then 2-3 days
Experimental: as §1
(§7) 1) human nasopharyngeal cancer cell line KB, melanoma cell line A375, and human lung cancer cell H460 were incubated at 37° C., 5% CO2 in RPMI 1640 medium containing 10% fetal bovine serum, the cells were passaged every 2-3 days.
(§8) 2) human nasopharyngeal cancer cell line KB, melanoma cell line A375, and human lung cancer cell H460 were plated at 1×10^3 cells per well (96-well plate) and incubated for 8-12 h at 37° C., 5% CO2.
as §4, §5, §6

[4] = system: human lung cancer cell H460; assay: Cytotoxicity test of conjugate LDC1013; type: cell-based; conditions: H460, incubated 15-30 min, then 2-3 days
Experimental: as §1, §7, §8, §4, §5, §6

melanoma cell line A375 [5] = assay: Cytotoxicity test of conjugate LDC1013; type: cell-based; conditions: A375, incubated 15-30 min, then 2-3 days
Experimental: as §1, §7, §8, §4, §5, §6

[6] = system: human nasopharyngeal cancer cell line KB; assay: Cytotoxicity test of conjugate LDC10BR; type: cell-based; conditions: incubated 15-30 min, then 2-3 days
Experimental: as §1, §7, §8, §4, §5, §6

[7] = system: human lung cancer cell H460; assay: Cytotoxicity test of conjugate LDC10BR; type: cell-based; conditions: H460, incubated 15-30 min, then 2-3 days
Experimental: as §1, §7, §8, §4, §5, §6

melanoma cell line A375 [8] = assay: Cytotoxicity test of conjugate LDC10BR; type: cell-based; conditions: A375, incubated 15-30 min, then 2-3 days
Experimental: as §1, §7, §8, §4, §5, §6

[9] = system: breast cancer cell line HCC1954; assay: Cytotoxicity test of conjugate LDC10B; type: cell-based, human; conditions: HCC1954, Incubation Time 30 min
Experimental: as §1
(§9) 1) human nasopharyngeal cancer cell line KB, melanoma cell line A375, human lung cancer cell H1299, chronic myeloid leukemia cell line K562, human lung cancer cell H460, ovarian cancer cell SKOV3, breast cancer cell line HCC1954, human gastric cancer cell N87, and human breast cancer cell SK-BR-3 were incubated at 37° C., 5% CO2 in RPMI 1640 medium containing 10% fetal bovine serum, the cells were passaged every 2-3 days.
(§10) 2) human nasopharyngeal cancer cell line KB, melanoma cell line A375, human lung cancer cell H1299, chronic myeloid leukemia cell line K562, human lung cancer cell H460, ovarian cancer cell SKOV3, breast cancer cell line HCC1954, human gastric cancer cell N87, and human breast cancer cell SK-BR-3 were plated at 1×10^3 cells per well (96-well plate) and incubated for 8-12 h at 37° C., 5% CO2.
(§11) 3) Stock solutions of LDC conjugates or controls were prepared in PBS solution. 100 μL/well of serially diluted LDC conjugates or controls was added to the test cells in the plates and incubated for 15-30 min at 37° C., 5% CO2. The culture medium in the wells was then removed by aspiration and the test cells were incubated in fresh culture medium without conjugates (150 μL/well) for 2-3 days at 37° C., 5% CO2.
(§12) 4) CellTiter 96® Aqueous One Solution Cell Proliferation Assay (Promega) was added to each well to measure the amount of […] cells, and each plate was incubated in an incubator for 1 h at 37° C., 5% CO2.
(§13) 5) Each plate was read at 490 nm on a microplate reader, and the cell survivals were compared for test cells with or without the treatment of LDC conjugates. The LDC drug concentrations that are required for 50% cell death (IC50 values) were determined.

[10] = system: ovarian cancer cell SKOV3; assay: Cytotoxicity test of conjugate LDC10B; type: cell-based, human; conditions: SKOV3, Incubation Time 30 min
Experimental: as §1, §9, §10, §11, §12, §13

[11] = system: human colon carcinoma HCT-116; assay: Cytotoxicity test of conjugate LDC13B; type: cell-based; conditions: HCT-116, incubated 15-30 min, then 2-3 days
Experimental: as §1
(§14) 1) human nasopharyngeal cancer cell line KB, human colon carcinoma HCT-116, human prostatic cancer cell PC-3, human gastric cancer cell line GTL-16, human endometrial cancer cell HEC-1A, and human gastric cancer cell N87 were incubated at 37° C., 5% CO2 in RPMI 1640 medium containing 10% fetal bovine serum, the cells were passaged every 2-3 days.
(§15) 2) human nasopharyngeal cancer cell line KB, human colon carcinoma HCT-116, human prostatic cancer cell PC-3, human gastric cancer cell line GTL-16, human endometrial cancer cell HEC-1A, and human gastric cancer cell N87 were plated at 1×10^3 cells per well (96-well plate) and incubated for 8-12 h at 37° C., 5% CO2.
as §4, §5, §6

[12] = system: human gastric cancer cell N87; assay: Cytotoxicity test of conjugate LDC13B; type: cell-based; conditions: N87, incubated 15-30 min, then 2-3 days
Experimental: as §1, §14, §15, §4, §5, §6

[13] = system: human nasopharyngeal cancer cell line KB; assay: Cytotoxicity test of conjugate LDC13B; type: cell-based; conditions: KB, incubated 15-30 min, then 2-3 days
Experimental: as §1, §14, §15, §4, §5, §6

[14] = system: human endometrial cancer cell HEC-1A; assay: Cytotoxicity test of conjugate LDC13B; type: cell-based; conditions: incubated 15-30 min, then 2-3 days
Experimental: as §1, §14, §15, §4, §5, §6

[15] = system: human gastric cancer cell line GTL-16; assay: Cytotoxicity test of conjugate LDC13B; type: cell-based; conditions: GTL-16, incubated 15-30 min, then 2-3 days
Experimental: as §1, §14, §15, §4, §5, §6

[16] = system: human prostatic cancer cell PC-3; assay: Cytotoxicity test of conjugate LDC13B; type: cell-based; conditions: PC-3, incubated 15-30 min, then 2-3 days
Experimental: as §1, §14, §15, §4, §5, §6

CC[C@H](C)[C@@H]([C@@H](CC(=O)N1CCC[C@H]1[C@H](OC)[C@@H](C)C(=O)N[C@H](C)[C@@H](O)c1ccccc1)OC)N(C)C(=O)[C@@H](NC(=O)[C@@H](NC)C(C)C)C(C)C [MMAE] (H-[NMeV]V[Dil][Dolaproine]-X1)
IC50 [1]: 0.29 nM
IC50 [2]: 0.49 nM
IC50 [3]: 20 nM
IC50 [4]: 37 nM
IC50 (melanoma cell line A375 [5]): 85 nM
IC50 [6]: 20 nM
IC50 [7]: 37 nM
IC50 (melanoma cell line A375 [8]): 85 nM
IC50 [9]: 0.45 nM
IC50 [10]: 0.62 nM
IC50 [11]: 12.7 nM
IC50 [12]: 3.83 nM
IC50 [13]: 28.8 nM
IC50 [14]: 8.74 nM
IC50 [15]: 6.38 nM
IC50 [16]: 12.8 nM
